Measured values taken from patent publication US10766882B2, “1,2-naphthoquinone based derivative and method of preparing the same” (YUNGJIN PHARM. CO., LTD., priority 2013, dated 2020).

biological target: NQO1 protein (Homo sapiens, UniProt P15559); experiment: NQO1 activity measurement (cytochrome C reduction); format: biochemical; settings: 5 ng NQO1 protein, 200 μM NADH, 77 μM cytochrome C, 37° C., absorbance 550 nm for 10 minutes
Description: An enzyme reaction solution included 25 mM Tris/HCl (pH 7.4), 0.14% bovine serum albumin, 200 μM NADH, 77 μM cytochrome C, and 5 ng of NQO1 protein. Enzymatic reaction was initiated by adding NADH and performed at 37° C. In this regard, a reaction rate was measured by observing absorbance, which was increased due to reduction of cytochrome C, at 550 nm for 10 minutes and NQO1 activity was represented as an amount of reduced cytochrome C [nmol cytochrome C reduced/min/μg protein].
Extinction coefficient for cytochrome C:21.1 mmol/L/cm=21.1 μmol/ml/cm

Sequence of NQO1 protein (P15559 whole entry, species assumed): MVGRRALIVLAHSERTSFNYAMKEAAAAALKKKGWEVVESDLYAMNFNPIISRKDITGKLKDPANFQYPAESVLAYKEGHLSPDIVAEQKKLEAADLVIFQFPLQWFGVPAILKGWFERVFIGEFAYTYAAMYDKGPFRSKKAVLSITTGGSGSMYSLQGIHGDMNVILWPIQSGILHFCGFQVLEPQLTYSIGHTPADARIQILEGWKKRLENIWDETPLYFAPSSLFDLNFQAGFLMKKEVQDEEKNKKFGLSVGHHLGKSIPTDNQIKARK

Row | Structure (SMILES) | NQO1 activity (5 μM, [nmol cytochrome C reduced/min/μg protein])
1 | CC(C)c1nc2c(n1Cc1ccccc1)-c1ccccc1C(=O)C2=O [Example 2, 1-benzyl-2-isopropyl-1H-naphtho[2,1-d]imidazole-4,5-dione] | 143 nmol cytochrome C reduced/min/μg protein
2 | CC(C)(C)c1nc2c([nH]1)C(=O)C(=O)c1ncccc1-2 [Example 7, 2-tert-butyl-3H-imidazo[4,5-f]quinoline-4,5-dione] | 55 nmol cytochrome C reduced/min/μg protein
3 | COc1ccc(-c2nc3c([nH]2)C(=O)C(=O)c2ccccc2-3)cc1 [Example 10] | 103 nmol cytochrome C reduced/min/μg protein
4 | O=C1C(=O)c2[nH]c(Cc3ccccc3)nc2-c2ccccc21 [Example 11] | 178 nmol cytochrome C reduced/min/μg protein
5 | O=C1C(=O)c2nccnc2-c2ccccc21 [Example 13] | 291 nmol cytochrome C reduced/min/μg protein
6 | Cn1c(C(C)(C)C)nc2c1-c1cccnc1C(=O)C2=O [Example 14] | 179 nmol cytochrome C reduced/min/μg protein
7 | CC(C)(C)Cc1nc2c([nH]1)C(=O)C(=O)c1ccccc1-2 [Example 15, 2-neopentyl-1H-naphtho[2,1-d]imidazole-4,5-dione] | 183.3 nmol cytochrome C reduced/min/μg protein
8 | CC(C)c1nc2c([nH]1)C(=O)C(=O)c1cc([N+](=O)[O-])ccc1-2 [Example 16] | 94.0 nmol cytochrome C reduced/min/μg protein
9 | CC(=O)Nc1ccc2c(c1)C(=O)C(=O)c1[nH]c(C(C)C)nc1-2 [Example 19] | 24.6 nmol cytochrome C reduced/min/μg protein
10 | CCc1nc2c([nH]1)C(=O)C(=O)c1cc([N+](=O)[O-])ccc1-2 [Example 24] | 208.2 nmol cytochrome C reduced/min/μg protein
11 | CCc1nc2c([nH]1)C(=O)C(=O)c1cc(N)ccc1-2 [Example 25] | 173.1 nmol cytochrome C reduced/min/μg protein
12 | CC(C)(C)c1nc2c([nH]1)C(=O)C(=O)c1cccnc1-2 [Example 27] | 207.4 nmol cytochrome C reduced/min/μg protein
13 | CC(C)C(=O)n1c(C(C)C)nc2c1C(=O)C(=O)c1ccccc1-2 [Example 28] | 177.2 nmol cytochrome C reduced/min/μg protein
14 | CC(C)c1nc2c(n1C(=O)OC(C)(C)C)C(=O)C(=O)c1ccccc1-2 [Example 29] | 215.6 nmol cytochrome C reduced/min/μg protein
15 | CC(C)c1nc2c(n1C(=O)OCc1ccccc1)C(=O)C(=O)c1ccccc1-2 [Example 31] | 127.1 nmol cytochrome C reduced/min/μg protein
16 | CC(C)c1nc2c(n1Cc1ccccc1)C(=O)C(=O)c1ccccc1-2 [Example 32] | 124.2 nmol cytochrome C reduced/min/μg protein
17 | CC(C)c1nc2c(n1Cc1cccc(Cl)c1)C(=O)C(=O)c1ccccc1-2 [Example 34] | 153.5 nmol cytochrome C reduced/min/μg protein
18 | CCn1c(C(C)C)nc2c1C(=O)C(=O)c1ccccc1-2 [Example 36] | 164.6 nmol cytochrome C reduced/min/μg protein
19 | CCOC(=O)n1c(C(C)C)nc2c1C(=O)C(=O)c1ccccc1-2 [Example 37] | 215.7 nmol cytochrome C reduced/min/μg protein
20 | CCc1nc2c(n1C)-c1ccccc1C(=O)C2=O [Example 39, 2-ethyl-1-methyl-1H-naphtho[2,1-d]imidazole-4,5-dione] | 104.7 nmol cytochrome C reduced/min/μg protein
21 | CCc1nc2c(n1CC(F)(F)F)C(=O)C(=O)c1ccccc1-2 [Example 40, 2-ethyl-3-(2,2,2-trifluoroethyl)-3H-naphtho[2,1-d]imidazole-4,5-dione] | 192.9 nmol cytochrome C reduced/min/μg protein
22 | CCc1nc2c(n1C)-c1ccc(F)cc1C(=O)C2=O [Example 42, 2-ethyl-7-fluoro-1-methyl-1H-naphtho[2,1-d]imidazole-4,5-dione] | 57.0 nmol cytochrome C reduced/min/μg protein
23 | CCc1nc2c(n1C)C(=O)C(=O)c1cc(Cl)ccc1-2 [Example 43, 7-chloro-2-ethyl-3-methyl-3H-naphtho[2,1-d]imidazole-4,5-dione] | 111.6 nmol cytochrome C reduced/min/μg protein
24 | CCc1nc2c(n1C)-c1ccc(Cl)cc1C(=O)C2=O [Example 44, 7-chloro-2-ethyl-1-methyl-1H-naphtho[2,1-d]imidazole-4,5-dione] | 43.4 nmol cytochrome C reduced/min/μg protein
25 | CC(C)(C)c1nc2c(n1Cc1ccccc1)C(=O)C(=O)c1cccnc1-2 [Example 46, 3-benzyl-2-tert-butyl-3H-imidazo[4,5-h]quinoline-4,5-dione] | 160.1 nmol cytochrome C reduced/min/μg protein

system: Cells; experiment: Measurement of lactate change amount within cells; format: cell-based; settings: PCA extract of cells, lactate measured from supernatant (Megazyme, K-LATE)
Description: Cells were treated with 400 μl of 6% PCA, and then collected and extracted. Centrifugation (13,000 rpm, 10 min) was performed. A precipitate was dried using a Speed-Vac and then a weight of dried precipitate was measured. A supernatant was neutralized using 400 μl of 1 M KOH and a final volume thereof was adjusted to 1 ml using 0.33 M KH2PO4/K2HPO4, pH 7.5. Centrifugation (13,000 rpm, 10 min) was performed and the amount of lactate was measured from a supernatant (Megazyme, K-LATE).

Row | Structure (SMILES) | Lactate change amount within cells (nmol/mg cell)
26 | CC(C)c1nc2c(n1Cc1ccccc1)-c1ccccc1C(=O)C2=O [Example 2, 1-benzyl-2-isopropyl-1H-naphtho[2,1-d]imidazole-4,5-dione] | 7.3
27 | CC(C)(C)c1nc2c([nH]1)C(=O)C(=O)c1ncccc1-2 [Example 7, 2-tert-butyl-3H-imidazo[4,5-f]quinoline-4,5-dione] | 11.4
28 | COc1ccc(-c2nc3c([nH]2)C(=O)C(=O)c2ccccc2-3)cc1 [Example 10] | 9.9
29 | O=C1C(=O)c2[nH]c(Cc3ccccc3)nc2-c2ccccc21 [Example 11] | 7.2
30 | Cn1c(C(C)(C)C)nc2c1-c1cccnc1C(=O)C2=O [Example 14] | 12.4
31 | CC(C)(C)Cc1nc2c([nH]1)C(=O)C(=O)c1ccccc1-2 [Example 15, 2-neopentyl-1H-naphtho[2,1-d]imidazole-4,5-dione] | 7.2
32 | CC(C)c1nc2c([nH]1)C(=O)C(=O)c1cc([N+](=O)[O-])ccc1-2 [Example 16] | 5.8
33 | CC(=O)Nc1ccc2c(c1)C(=O)C(=O)c1[nH]c(C(C)C)nc1-2 [Example 19] | 6.5
34 | CCc1nc2c([nH]1)C(=O)C(=O)c1cc([N+](=O)[O-])ccc1-2 [Example 24] | 4.3
35 | CCc1nc2c([nH]1)C(=O)C(=O)c1cc(N)ccc1-2 [Example 25] | 6.1
36 | CC(C)(C)c1nc2c([nH]1)C(=O)C(=O)c1cccnc1-2 [Example 27] | 9.6
37 | CC(C)C(=O)n1c(C(C)C)nc2c1C(=O)C(=O)c1ccccc1-2 [Example 28] | 6.8
38 | CC(C)c1nc2c(n1C(=O)OC(C)(C)C)C(=O)C(=O)c1ccccc1-2 [Example 29] | 8.1
39 | CC(C)c1nc2c(n1C(=O)OCc1ccccc1)C(=O)C(=O)c1ccccc1-2 [Example 31] | 5.1
40 | CC(C)c1nc2c(n1Cc1ccccc1)C(=O)C(=O)c1ccccc1-2 [Example 32] | 5.8
41 | CC(C)c1nc2c(n1Cc1cccc(Cl)c1)C(=O)C(=O)c1ccccc1-2 [Example 34] | 4.9
42 | CCn1c(C(C)C)nc2c1C(=O)C(=O)c1ccccc1-2 [Example 36] | 7.8
43 | CCOC(=O)n1c(C(C)C)nc2c1C(=O)C(=O)c1ccccc1-2 [Example 37] | 10.3
44 | CCc1nc2c(n1C)-c1ccccc1C(=O)C2=O [Example 39, 2-ethyl-1-methyl-1H-naphtho[2,1-d]imidazole-4,5-dione] | 8.4
45 | CCc1nc2c(n1CC(F)(F)F)C(=O)C(=O)c1ccccc1-2 [Example 40, 2-ethyl-3-(2,2,2-trifluoroethyl)-3H-naphtho[2,1-d]imidazole-4,5-dione] | 9.7
46 | CCc1nc2c(n1C)-c1ccc(F)cc1C(=O)C2=O [Example 42, 2-ethyl-7-fluoro-1-methyl-1H-naphtho[2,1-d]imidazole-4,5-dione] | 8.9
47 | CCc1nc2c(n1C)C(=O)C(=O)c1cc(Cl)ccc1-2 [Example 43, 7-chloro-2-ethyl-3-methyl-3H-naphtho[2,1-d]imidazole-4,5-dione] | 6.0
48 | CCc1nc2c(n1C)-c1ccc(Cl)cc1C(=O)C2=O [Example 44, 7-chloro-2-ethyl-1-methyl-1H-naphtho[2,1-d]imidazole-4,5-dione] | 9.5
49 | CC(C)(C)c1nc2c(n1Cc1ccccc1)C(=O)C(=O)c1cccnc1-2 [Example 46, 3-benzyl-2-tert-butyl-3H-imidazo[4,5-h]quinoline-4,5-dione] | 8.9

system: C57BL/6J Lep ob/ob mice; experiment: Weight loss effects in obese mice (ob/ob); format: in vivo; settings: Exp. Ex. 3-3, FIG. 3: 11 week-old ob/ob mice, 100 mg/kg oral, total of 6 days, vs 0.1% SLS controls
Description: 10 week-old C57BL/6J Lep ob/ob mice having genetic obesity characteristics available from ORIENTBIO were prepared. Two mice were raised in each polycarbonate breeding cage (200 W×260 L×130H (mm), Three-shine) in which temperature was 20 to 24° C., relative humidity was 35 to 65%, illuminance was 150 to 300 lux, night and day were 12 hours, and exhaust was performed at 10 to 15 air changes per hour. As a feed, low fat diet (11.9 kcal % fat, 5053, Labdiet) manufactured by ORIENTBIO was used. The feed was contained in a feeder and free intake was allowed. As drinking water, water, which was contained in a 250 mL polycarbonate based bottle, purified through a filter and a sterilizer was used and free intake was allowed.
The compound according to Example 1 synthesized in the present invention was orally administered to three C57BL/6J Lep ob/ob mice in amounts of 40 mg/kg, 80 mg/kg, and 120 mg/kg, respectively, once every day for two weeks. For administration, a disposable syringe fitted with a sonde for oral administration was used and 10 ml/kg of the compound was orally administered into the stomach. As controls, three C57BL/6J Lep ob/ob mice were administered 0.1% sodium lauryl sulfate (SLS) in an amount of 120 mg/kg in the same manner as described above. After administration, a time-dependent weight increase ratio, weight change, and intake amount were measured and results are illustrated in FIG. 1 below.
Weights of the experimental animals were measured immediately before administration of a test material and seven times a week from an administration initiation day to a test termination day. Increased total weights were calculated by subtracting weights measured on an experiment initiation day from weights measured one day before an experiment termination day. Food intake amounts were calculated by measuring feed supply amounts and remaining amounts twice a week from an initiation day of test material administration to a test termination day for each individual. […]
(§1) Experiments were performed under the same conditions as in Experimental Example 3-1 except that 15 week-old C57BL/6J Lep ob/ob mice having genetic obesity characteristics available from ORIENTBIO were prepared, the compounds according to Examples 5 and 6 were administered to three C57BL/6J Lep ob/ob mice in an amount of 150 mg/kg, 150 mg/kg of 0.1% SLS was administered to each of three C57BL/6J Lep ob/ob mice as controls, and experiments were performed for a total of one week. Weight increase ratios, weight change, and intake amounts depending on administration time were measured and results are illustrated in FIG. 5 below.
as §1, with “that 10” for “that 15”, “Examples 8, 9,” for “Examples 5”, “and 12” for “and 6”, “FIG. 6” for “FIG. 5”
Experiments were performed under the same conditions as in Experimental Example 3-1 except that 6 week-old C57BL/6J Lep ob/ob mice having genetic obesity characteristics available from ORIENTBIO were prepared, the compounds according to Examples 17, 18, 22, and 23 were administered to three C57BL/6J Lep ob/ob mice in an amount of 100 mg/kg, 100 mg/kg of 0.1% SLS was administered to each of three C57BL/6J Lep ob/ob mice as controls, and experiments were performed for a total of one week. Weight increase ratios, weight change, and intake amounts depending on administration time were measured and results are illustrated in FIG. 10 below. […]

Row | Structure (SMILES) | intake amount | weight increase ratio
50 | O=C1C(=O)c2nccnc2-c2ccccc21 [Example 13] | significantly decreased | significantly decreased
